From US7534894B2, “Biphenyloxy-acids” (Wyeth, priority 2003, dated 2009)

Assays:
[1] = molecular target: T1, recombinant human plasminogen activator inhibitor-1 (PAI-1) (Homo sapiens, UniProt P05121); test: Primary Screen for the PAI-1 Inhibition (residual tPA activity, chromogenic substrate Spectrozyme-tPA); format: biochemical; conditions: 140 nM PAI-1, 70 nM tPA, pH 6.6
T1 construct: purchased Molecular Innovations, Royal Oak, Mich
Experimental: (§1) Test compounds are dissolved in DMSO at a final concentration of 10 mM, then diluted 101× in physiologic buffer. The inhibitory assay is initiated by the addition of the test compound (1-100 μM final concentration, maximum DMSO concentration of 0.2%) in a pH 6.6 buffer containing 140 nM recombinant human plasminogen activator inhibitor-1 (PAI-1; Molecular Innovations, Royal Oak, Mich.). Following a 1 hour incubation at room temperature, 70 nM of recombinant human tissue plasminogen activator (tPA) is added, and the combination of the test compound, PAI-1 and tPA is incubated for an additional 30 minutes. Following the second incubation, Spectrozyme-tPA (American Diagnostica, Greenwich, Conn.), a chromogenic substrate for tPA, is added and absorbance read at 405 nm at 0 and 60 minutes. Relative PAI-1 inhibition is equal to the residual tPA activity in the presence of the test compound and PAI-1. Control treatments include the complete inhibition of tPA by PAI-1 at the molar ratio employed (2:1), and the absence of any effect of the test compound on tPA alone.

[2] = molecular target: T1, recombinant human plasminogen activator inhibitor-1 (PAI-1); test: Kinetic IC50: modification of the Primary Screen for the PAI-1 Inhibition; format: biochemical
Experimental: as §1

T1 sequence (P05121 24-402): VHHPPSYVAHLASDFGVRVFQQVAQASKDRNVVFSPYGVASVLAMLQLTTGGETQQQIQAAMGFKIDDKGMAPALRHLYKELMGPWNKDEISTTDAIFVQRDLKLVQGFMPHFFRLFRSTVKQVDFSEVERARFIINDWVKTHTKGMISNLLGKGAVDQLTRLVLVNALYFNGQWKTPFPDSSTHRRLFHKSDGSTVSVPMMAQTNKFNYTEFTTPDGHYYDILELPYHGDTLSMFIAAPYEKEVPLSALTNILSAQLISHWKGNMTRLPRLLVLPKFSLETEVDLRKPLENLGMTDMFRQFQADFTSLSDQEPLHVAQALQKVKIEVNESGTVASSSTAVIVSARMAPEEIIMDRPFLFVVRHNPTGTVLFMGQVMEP

Compound	inhibition at 25 µM ([1]; 25 μM test compound)	inhibition at 100 µM ([1]; 100 μM test compound)	IC50 [2]	% Inhibition 25 μM ([1]; 25 μM test compound)	% Inhibition 100 μM ([1]; 100 μM test compound)
O=C(O)C(Cc1ccccc1)Oc1ccc(-c2ccc(NC(=O)C3(c4cccc(F)c4)CCCC3)cc2)cc1 (stereo not drawn) [Compound 34, 2-{[4′-({[1-(3-fluorophenyl)cyclopentyl]carbonyl}amino)-1,1′-biphenyl-4-yl]oxy}-3-phenylpropanoic acid]	33%	70%	38.6 µM	–	–
O=C(O)COc1ccc(-c2ccc(NC(=O)C3(c4ccc(Cl)cc4)CCC3)cc2)cc1 [Compound 35, {[4′-({[1-(4-chlorophenyl)cyclobutyl]carbonyl}amino)-1,1′-biphenyl-4-yl]oxy}acetic acid]	15%	80%	39.3 µM	–	–
O=C(O)C(Cc1ccccc1)Oc1cccc(-c2ccc(NC(=O)C3(c4ccccc4)CCCC3)cc2)c1 (stereo not drawn) [Compound 25, 3-phenyl-2-[(4′-{[(1-phenylcyclopentyl)carbonyl]amino}-1,1′-biphenyl-3-yl)oxy]propanoic acid]	26%	74%	40.8 µM	–	–
O=C(Nc1ccc(-c2cccc(OC(Cc3ccccc3)C(=O)O)c2)cc1)c1ccc(-c2ccc(Cl)cc2)s1 (stereo not drawn) [Compound 38, 2-{[4′-({[5-(4-chlorophenyl)thien-2-yl]carbonyl}amino)-1,1′-biphenyl-3-yl]oxy}-3-phenylpropanoic acid]	5%	52%	38.7 µM	–	–
O=C(O)C(Cc1ccccc1)Oc1ccc(-c2ccc(NC(=O)C3(c4ccc(Cl)cc4)CCC3)cc2)cc1 (stereo not drawn) [Compound 47, 2-{[4′-({[1-(4-chlorophenyl)cyclobutyl]carbonyl}amino)-1,1′-biphenyl-4-yl]oxy}-3-phenylpropanoic acid]	14%	83%	18.1 µM	–	–
O=C(Nc1ccc(-c2cccc(OC(Cc3ccccc3)C(=O)O)c2)cc1)c1cc(-c2ccc(-c3ccccc3)cc2)oc1C(F)(F)F (stereo not drawn) [Compound 42, 2-[(4′-{[5-(1,1′-biphenyl-4-yl)-2-(trifluoromethyl)-3-furoyl]amino}-1,1′-biphenyl-3-yl)oxy]-3-phenylpropanoic acid]	35%	57%	18.6 µM	–	–
O=C(O)C(Cc1ccccc1)Oc1ccc(-c2ccc(NC(=O)C3(c4ccc(Cl)cc4)CCCC3)cc2)cc1 (stereo not drawn) [Compound 52, 2-{[4′-({[1-(4-chlorophenyl)cyclopentyl]carbonyl}amino)-1,1′-biphenyl-4-yl]oxy}-3-phenylpropanoic acid]	55%	53%	–	–	–
O=C(Nc1ccc(-c2ccc(OC(Cc3ccccc3)C(=O)O)cc2)cc1)c1ccc2ccccc2c1 (stereo not drawn) [Compound 55, 2-{[4′-(2-naphthoylamino)-1,1′-biphenyl-4-yl]oxy}-3-phenylpropanoic acid]	26%	53%	–	–	–
CCCc1ccc(-c2ccc(C(=O)Nc3ccc(-c4ccc(OC(Cc5ccccc5)C(=O)O)cc4)cc3)cc2)cc1 (stereo not drawn) [Compound 20, 3-phenyl-2-[(4′-{[(4′-propyl-1,1′-biphenyl-4-yl)carbonyl]amino}-1,1′-biphenyl-4-yl)oxy]propanoic acid]	40%	66%	–	–	–
O=C(Nc1ccc(-c2ccc(OC(Cc3ccccc3)C(=O)O)cc2)cc1)c1cc(-c2ccc(C(F)(F)F)cc2)oc1C(F)(F)F (stereo not drawn) [Compound 50, 3-phenyl-2-{[4′-({2-(trifluoromethyl)-5-[4-(trifluoromethyl)phenyl]-3-furoyl}amino)-1,1′-biphenyl-4-yl]oxy}propanoic acid]	27%	95%	18.7 µM	–	–
Cn1cc(C(=O)N(Cc2ccccc2)Cc2ccc(-c3ccc(OCc4nnn[nH]4)c(Br)c3)cc2)c2ccccc21 [Compound 12, N-benzyl-N-{[3′-bromo-4′-(1H-tetraazol-5-ylmethoxy)-1,1′-biphenyl-4-yl]methyl}-1-methyl-1H-indole-3-carboxamide]	55%	–	–	–	–
O=C(O)C(Cc1ccccc1)Oc1cccc(-c2ccc(NC(=O)C3(c4cccc(F)c4)CCCC3)cc2)c1 (stereo not drawn) [Compound 30, 2-{[4′-({[1-(3-fluorophenyl)cyclopentyl]carbonyl}amino)-1,1′-biphenyl-3-yl]oxy}-3-phenylpropanoic acid]	23%	73%	17.4 µM	–	–
O=C(O)C(Cc1ccccc1)Oc1cccc(-c2ccc(NC(=O)C3(c4ccc(Cl)cc4)CCCCC3)cc2)c1 (stereo not drawn) [Compound 51, 2-{[4′-({[1-(4-chlorophenyl)cyclohexyl]carbonyl}amino)-1,1′-biphenyl-3-yl]oxy}-3-phenylpropanoic acid]	46%	60%	–	–	–
O=C(O)C(Cc1ccccc1)Oc1ccc(-c2ccc(NC(=O)C3(c4ccccc4)CC3)cc2)cc1 (stereo not drawn) [Compound 32, 3-phenyl-2-[(4′-{[(1-phenylcyclopropyl)carbonyl]amino}-1,1′-biphenyl-4-yl)oxy]Propanoic acid]	15%	78%	4.04 µM	–	–
O=C(Nc1ccc(-c2ccc(OC(Cc3ccccc3)C(=O)O)cc2)cc1)c1sc2ccccc2c1Cl (stereo not drawn) [Compound 57, 2-[(4′-{[(3-chloro-1-benzothien-2-yl)carbonyl]amino}-1,1′-biphenyl-4-yl)oxy]-3-phenylpropanoic acid]	34%	58%	–	–	–
O=C(O)C(Cc1ccccc1)Oc1cccc(-c2ccc(NC(=O)C3(c4ccc(Cl)cc4)CCC3)cc2)c1 (stereo not drawn) [Compound 39, 2-{[4′-({[1-(4-chlorophenyl)cyclobutyl]carbonyl}amino)-1,1′-biphenyl-3-yl]oxy}-3-phenylpropanoic acid]	40%	81%	12 µM	–	–
O=C(Nc1ccc(-c2ccc(OC(Cc3ccccc3)C(=O)O)cc2)cc1)c1ccc(-c2ccc(Cl)cc2)o1 (stereo not drawn) [Compound 21, 2-[(4′-{[5-(4-chlorophenyl)-2-furoyl]amino}-1,1′-biphenyl-4-yl)oxy]-3-phenylpropanoic acid]	28%	52%	–	–	–
Cc1nn(Cc2ccc(C(=O)Nc3ccc(-c4cccc(OC(Cc5ccccc5)C(=O)O)c4)cc3)o2)c(C)c1Br (stereo not drawn) [Compound 44, 2-{[4′-({5-[(4-bromo-3,5-dimethyl-1H-pyrazol-1-yl)methyl]-2-furoyl}amino)-1,1′-biphenyl-3-yl]oxy}-3-phenylpropanoic acid]	17%	52%	11.8 µM	–	–
O=C(O)C(Cc1ccccc1)Oc1cccc(-c2ccc(NC(=O)C3(c4ccccc4)CC3)cc2)c1 (stereo not drawn) [Compound 53, 3-phenyl-2-[(4′-{[(1-phenylcyclopropyl)carbonyl]amino}-1,1′-biphenyl-3-yl)oxy]propanoic acid]	19%	52%	–	–	–
Cc1cc(C)c2c(c1C(=O)Nc1ccc(-c3cccc(OC(Cc4ccccc4)C(=O)O)c3)cc1)CC(C)(C)C2=O (stereo not drawn) [Compound 54, 3-phenyl-2-[(4′-{[(2,2,5,7-tetramethyl-1-oxo-2,3-dihydro-1H-inden-4-yl)carbonyl]amino}-1,1′-biphenyl-3-yl)oxy]propanoic acid]	29%	85%	–	–	–
CCCCc1oc2ccccc2c1C(=O)N(Cc1ccccc1)Cc1ccc(-c2ccc(OCc3nnn[nH]3)c(Br)c2)cc1 [Compound 11, N-benzyl-N-{[3′-bromo-4′-(1H-tetraazol-5-ylmethoxy)-1,1′-biphenyl-4-yl]methyl}-2-butyl-1-benzofuran-3-carboxamide]	53%	–	–	–	–
CCCCOc1ccc2cc(C(=O)Nc3ccc(-c4ccc(OC(Cc5ccccc5)C(=O)O)cc4)cc3)ccc2c1 (stereo not drawn) [Compound 56, 2-({4′-[(6-butoxy-2-naphthoyl)amino]-1,1′-biphenyl-4-yl}oxy)-3-phenylpropanoic acid]	–	53%	–	–	–
O=C(O)COc1ccc(-c2ccc(CNC(=O)c3cnn(-c4ccccc4)c3C(F)(F)F)cc2)cc1 [Compound 1, ({4′-[({[1-phenyl-5-(trifluoromethyl)-1H-pyrazol-4-yl]carbonyl}amino)methyl][1,1′-biphenyl]-4-yl}oxy)acetic acid]	1%	60%	–	–	–
O=C(O)COc1ccc(-c2ccc(NC(=O)C3(c4ccc(Cl)cc4)CCCC3)cc2)cc1 [Compound 22, {[4′-({[1-(4-chlorophenyl)cyclopentyl]carbonyl}amino)-1,1′-biphenyl-4-yl]oxy}acetic acid]	30%	89%	–	–	–
CCCc1c(C(=O)NCc2ccc(-c3ccc(OCc4nnn[nH]4)c(Br)c3)cc2)cnn1-c1ccccc1 [Compound 5, N-{[3′-bromo-4′-(H-tetraazol-5-ylmethoxy)[1,1′-biphenyl]-4-yl]methyl}-1-phenyl-5-propyl-1H-pyrazole-4-carboxamide]	–	–	–	23%	73%
O=C(O)COc1ccc(-c2ccc(NC(=O)C3(c4cccc(F)c4)CCCC3)cc2)cc1 [Compound 23, {[4′-({[1-(3-fluorophenyl)cyclopentyl]carbonyl}amino)-1,1′-biphenyl-4-yl]oxy}acetic acid]	3%	77%	–	–	–
